Tests used:
Type in all cases: functional
[1] = tested on: Hep 3B2; test: Cell cycle arrest in human Hep3B cells assessed as accumulation at G0/G1 phase at 5 uM after 24 hrs by propidium iodide staining based flow cytometry (reference value: 36.3 to 39.0%)
[2] = tested on: Hep 3B2; test: Induction of apoptosis in human Hep3B cells assessed as ratio of cleaved caspase-3 to beta actin level at 40 uM after 72 hrs in presence of curcumin by Western blot analysis
[3] = tested on: Hep 3B2; test: Growth inhibition of human Hep3B cells at 10 uM after 48 hrs in presence of curcumin by MTT assay
[4] = tested on: Hep 3B2; test: Down regulation of FOS expression in human Hep3B cells at 1 uM after 6 to 24 hrs by L1000 expression profiling method relative to control

COc1ccc(CNC(=O)Nc2ncc([N+](=O)[O-])s2)cc1
Activity [1]: 32.5%
Ratio [2]: 1.1

O=C1COc2ccccc2N1Cc1cn(CCC2OCCO2)nn1
CI [3]: 0.89
log2FC [4]: -3.1627

From ChEMBL document CHEMBL4024707, “Using gene expression database to uncover biology functions of 1,4-disubstituted 1,2,3-triazole analogues synthesized via a copper (I)-catalyzed reaction” (Eur J Med Chem, 2017)
